Test results published in patent publication US20220305003A1, “METHODS OF TREATING CANCER WITH AN INHIBITOR OF ZNF827” (CHILDREN'S MEDICAL RESEARCH INSTITUTE, priority 2019, published 2022).

Tests used:
[1] = tested on: HT1080 cells; experiment: RPA foci by immunofluorescence in HT1080 cells; assay type: cell-based
Description: Topotecan and aphidicolin were used in this study. For experiments where they were used to cause replication stress and DNA damage, cells were treated with topotecan 2 μg/mL for either 1 hour or 24 hours, or aphidicolin 1 μM for 20 hours. For replication fork stalling induction in the PCNA colocalisation experiments, cells were treated with aphidicolin 0.4 μM for 6-8 hours. Topotecan and aphidicolin were dissolved in DMSO. DMSO was used as a control.
Cells were transfected using Lipofectamine RNAiMAX transfection reagent (ThermoFisher Scientific) with an siRNA concentration of […]. For transfection in a 75 cm^2flask, 3 mL reduced serum medium Opti-MEM (Gibco) was combined with 15 μL of 20 μM siRNA, mixed gently to cover the surface area of the flask and incubated at room temperature for 5 minutes. 30 μL of Lipofectamine RNAiMAX transfection reagent was then added to the mixture, and mixed and incubated for a further 15 minutes at room temperature. Meanwhile, cells to be transfected were trypsinised, resuspended in DMEM supplemented with 10% FCS, and counted using a Beckman Coulter cell counter. 0.8-1×10^6 cells in DMEM supplemented with 10% FCS were directly pipetted onto the transfection mixture in the flask, and shaken gently to mix. Additional DMEM supplemented with 10% FCS was added to the flask up to a total volume of 15 mL. Cells were harvested 72 hours post-transfection for knockdown validation and subsequent experiments.
Cells cultured on coverslips were fixed in 2% paraformaldehyde in PBS at room temperature for 10 minutes. Cells fixed on coverslips were rinsed with deionised water, and then permeabilised using KCM buffer (120 mM potassium chloride, 20 mM NaCl, 10 mM Tris, pH 7.5, 0.1% Triton X-100) at room temperature for 10 minutes. Coverslips were blocked with antibody diluent buffer (ABDIL—20 mM Tris-Cl, pH 7.5, 2% BSA, 0.2% fish gelatine, 150 mM NaCl, 0.1% Triton X-100, 0.1% sodium azide) containing 100 μg/mL RNase A at room temperature for one hour. […] Quantitated analysis was conducted by automation with CellProfiler (Broad Institute).

[2] = tested on: U-2 OS cells; experiment: IncuCyte live cell growth and apoptosis (Nucview488 caspase 3) assay; assay type: cell-based
Description: Considering the effects of ZNF827 depletion on DNA replication and the cell cycle, the impact of ZNF827 on cell proliferation and cell viability was examined. Live cell assays were performed on U-2 OS cells in the IncuCyte® to monitor real-time cell proliferation by confluency and cell viability using Nucview488, a fluorescent reporting dye for caspase 3 activity that allows quantitative measurement of apoptotic activity. Cells were treated with topotecan or DMSO control for the first half of the assay and treatments were removed for the remaining time.
Cells were seeded at 20-30% in a 96-well black plate with clear bottom (3603, Corning) and left to adhere at 37° C. with 10% CO2 for at least 3 hours. The media was aspirated and replaced with phenol red free media supplemented 2 μM Nucview® 488 Caspase-3 substrate (Biotium) and placed into the IncuCyte® for baseline imaging without drug treatment. Topotecan 2 μg/mL or DMSO control was added to the wells, and incubated at 37° C. with 10% CO2 for 1 hour. The media was then aspirated, cells were washed carefully once with warm PBS, and the media replaced with phenol red free media supplemented 2 μM Nucview® 488 Caspase-3 substrate (Biotium). The plate was then placed back into IncuCyte®, imaged immediately post drug treatment, and then every 4 hours for 72 to 84 hours in the phase and green channels. Image analysis was performed with the IncuCyte® Zoom software. Cell growth was measured as % confluency over time, and apoptotic activity as green object confluence/area over time.

[3] = tested on: HT1080 and HT1080 6TG cells; experiment: γH2AX and ZNF827 foci by immunofluorescence; settings: topotecan 2 μg/mL 24 hr vs unchallenged
[4] = EdU flow cytometry; assay type: cell-based; settings: EdU pulse 1 hour
Description: Using EdU flow cytometry (5-ethynyl-2′-deoxyuridine) is a thymidine analogue which is incorporated into DNA during active DNA synthesis), the effects of ZNF827 depletion on cell cycle progression, especially on DNA replication, were examined.
EdU flow cytometry was performed with the Click-iT EdU flow cytometry kit (ThermoFisher Scientific) according to manufacturer's instructions. Briefly cells were pulsed with EdU for 1 hour at 37° C. and harvested by trypsinisation and centrifugation at 1000 rpm for 5 minutes. Cells were then fixed and labelled with Alex Fluor 647 with the flow cytometry kit following the manufacturer's protocol. For DNA content labelling, the fixed cells were treated with 0.5 mg of RNase (Sigma) and 25 μg of propidium iodide at 37° C. for 30 minutes. Labelled cells were analysed using the BD FACSCanto Flow Cytometer (BD Biosciences) containing lasers to excite Alexa Fluor 647 labelled EdU and propidium iodide. Between 10 000-15 000 events were collected at an approximate flow rate of 200 events/second. Data analysis was conducted using FlowJo 7.

[5] = agent alone (topotecan 2 μg/mL 24 hr, or 72 hr siRNA knockdown in unchallenged cells)
[6] = agent alone (topotecan 2 μg/mL 1 hour then removed, or ZNF827 depletion with DMSO)
[7] = agent alone (topotecan 2 μg/mL, or ZNF827 depletion vs scrambled control)

Molecule	total nuclear RPA foci [1, 5]	cell proliferation (% confluency over time) [2, 6]	apoptotic activity (Nucview488 caspase 3) [2, 7]	ZNF827 foci induction [3]	γH2AX foci induction [3]	total nuclear RPA foci ([1]; 72 hr siRNA knockdown of ZNF827 in topotecan-treated cells (2 μg/mL, 24 hr))	cell cycle distribution (EdU) [4]	cell proliferation (% confluency over time) ([2]; ZNF827 depletion in conjunction with topotecan 2 μg/mL)	apoptotic activity (Nucview488 caspase 3) ([2]; combination of ZNF827 depletion and topotecan, compared with topotecan alone)
CC[C@@]1(O)C(=O)OCc2c1cc1n(c2=O)Cc2cc3c(CN(C)C)c(O)ccc3nc2-1 [topotecan]	RPA foci only became visible upon topotecan treatment	effectively inhibited cell growth	much greater apoptotic activity	striking induction of ZNF827	efficiently induced γH2AX foci	–	–	–	–
siZNF827: Stealth RNAi siRNA ZNF827HSS135819 duplex oligoribonucleotides (Invitrogen), SEQ ID NO: 12 and 13 (chain 1 GGGCAGUCUUCUGGCUGAGAAAUCA; chain 2 UGAUUUCUCAGCCAGAAGACUGCCC; listed as RNA, further chemistry not given here)	did not change the total number of nuclear RPA foci	reduced cell proliferation, surprisingly to a similar efficacy as topotecan	significantly higher apoptotic activity compared to scrambled control	–	–	significantly greater increase in overall nuclear RPA foci	conspicuous G1 arrest and a significant reduction of S phase cells	completely abrogated cell proliferation	exceeded markedly
